Test results from EP2951180B1, “2,6,7,8 SUBSTITUTED PURINES AS HDM2 INHIBITORS” (Merck Sharp & Dohme Corp., priority 2013, dated 2014).
Like-named read-outs stand apart in the source and are kept apart here.

Target: T1, HDM2 (Homo sapiens, UniProt Q00987)
T1 construct: Thioredoxin (N); made in house; host or cells: E. coli strain BL21(DE3)Rosetta
Assay: HDM2 FRET assay (inhibition of binding of FITC labeled p53-pocket peptide to HDM2)
Conditions: for IC50: read-out: FRET IC50
Procedure, shortened: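 TR-FRET with 0.5 nM His-tagged recombinant HDM2, 3 nM FITC-labelled p53 peptide and 0.25 nM Tb-anti-His antibody in PBS, 0.01% BSA, 0.01% Tween-20, 0.1% DMSO. IC50 from em520/em495 ratio over 10-point dilutions, 4-parameter logistic fit.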

[1] = 0.5 nM HDM2 (residues 17 to 125), 3nM peptide, two hour incubation at room temperature
[2] = read-out: % inh. at 1000 nM, at 1000 nM compound

T1 sequence (Q00987 17-125): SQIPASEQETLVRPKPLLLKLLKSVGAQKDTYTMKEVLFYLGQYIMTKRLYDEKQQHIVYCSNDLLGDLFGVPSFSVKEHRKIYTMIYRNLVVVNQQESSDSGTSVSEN

SMILES: C[C@@H](Nc1nc(C(=O)O)nc2nc(N3CCCCC3c3ccc(F)cc3)n(C[C@H]3CC[C@H](C)CC3)c12)C1CCC1 (stereo partly drawn) [Example 11.18, 6-{[(1R)-1-cyclobutylethyl]amino}-8-[2-(4-fluorophenyl)piperidin-1-yl]-7-[(trans-4-methylcyclohexyl)methyl]-7H-purine-2-carboxylic acid]
- IC50 (Table 11): 4.42 nM

SMILES: CC[C@H]1CC[C@H](Cn2c(N3CCOC[C@H]3c3ccccc3)nc3nc(C(=O)O)nc(N[C@H](C)C4CCC4)c32)CC1 [Example 18.21, 6-{[(1R)-1-cyclobutylethyl]amino}-7-[(trans-4-ethylcyclohexyl)methyl]-8-[(3R)-3-phenylmorpholin-4-yl]-7H-purine-2-carboxylic acid]
- IC50 (Table 18): 0.548 nM

SMILES: C[C@H]1CC[C@H](Cn2c(N3CCOC[C@H]3c3ccccc3)nc3nc(-c4n[nH]c(=O)o4)nc(C4CCOCC4)c32)CC1 [Example 16.168, 5-{7-[(trans-4-methylcyclohexyl)methyl]-8-[(3R)-3-phenylmorpholin-4-yl]-6-(tetrahydro-2H-pyran-4-yl)-7H-purin-2-yl} -1,3,4-oxadiazol-2(3H)-one]
- IC50 [1]: 67.1 nM

SMILES: C[C@@H]1OCCN(c2nc3nc(-c4n[nH]c(=O)o4)nc(-c4cncc(Cl)c4)c3n2C[C@H]2CC[C@H](C)CC2)[C@@H]1c1ccccc1 [Example 16.130, 5-{6-(5-chloropyridin-3-yl)-7-[(trans-4-methylcyclohexyl)methyl]-8-[(2S,3R)-2-methyl-3-phenylmorpholin-4-yl]-7H-purin-2-yl}-1,3,4-oxadiazol-2(3H)-one]
- IC50 [1]: 28.9 nM

SMILES: C=CCN(c1nc(C(=O)O)nc2nc(N[C@@H](C)c3cccc(F)c3)n(Cc3ccc(C(F)(F)F)cc3)c12)[C@H](C)C1CCC1 [Example 10.28, 6-(Allyl((R)-1-cyclobutylethyl)amino)-8-(((S)-1-(3-fluorophenyl)ethyl)amino)-7-(4-(trifluoromethyl)benzyl)-7H-purine-2-carboxylic acid]
- IC50 (Table 10): 22.2 nM

SMILES: C[C@@H](Nc1nc(C(=O)O)nc2nc(C3COCC3c3ccccc3)n(Cc3ccc(C(F)(F)F)cc3)c12)C1CCC1 (single isomer, unassigned) [Example 21.7]
- IC50 (Table 21): 28.7 nM

SMILES: CCC[C@@H](Nc1nc(C(=O)O)nc2nc(-c3cccc(C)c3)n(Cc3ccc(C(F)(F)F)cc3)c12)C1CCC1 [Example 7.5, 6-{[(1R)-1-cyclobutylbutyl]amino}-8-(3-methylphenyl)-7-[4-(trifluoromethyl)benzyl]-7H-purine-2-carboxylic acid]
- IC50 (Table 7): 142 nM

SMILES: C[C@H]1CC[C@H](Cn2c(C(=O)C3CCCCC3)nc3nc(-c4noc(=O)[nH]4)nc(-c4cccc(Cl)c4)c32)CC1 [Example 23.6, 3-{6-(3-chlorophenyl)-8-(cyclohexylcarbonyl)-7-[(trans-4-methylcyclohexyl)methyl] -7H-purin-2-yl}-1,2,4-oxadiazol-5(4H)-one]
- IC50 (Table 23): 13.9 nM

SMILES: CC(C)c1ccnc(-c2nc3nc(C(C)O)nc(N[C@H](C)C4CCC4)c3n2C[C@H]2CC[C@H](C)CC2)c1 (stereo partly drawn) [Example 12.6, 1-(6-{[(1R)-1-cyclobutylethyl]amino}-7-[(trans-4-methylcyclohexyl)methyl]-8-[4-(propan-2-yl)pyridin-2-yl]-7H-purin-2-yl)ethanol]
- IC50 [1]: 420 nM

SMILES: C[C@@H](Nc1nc(C(=O)O)nc2nc(N3CCCCC3C3CCCCC3)n(C[C@H]3CC[C@H](C)CC3)c12)C1CCC1 (stereo partly drawn) [Example 11.4, 6-(((R)-1-cyclobutylethyl)amino)-8-(2-cyclohexylpiperidin-1-yl)-7-((trans-4-methylcyclohexyl)methyl)-7H-purine-2-carboxylic acid]
- IC50 (Table 11): 1.56 nM

SMILES: Cc1cccc(-c2nc3nc(C(=O)O)nc(N[C@@H](C)c4ccc(Cl)cc4)c3n2Cc2ccc(C(F)(F)F)cc2)c1 [Example 6.46, 6-{[(1S)-1-(4-chlorophenyl)ethyl]amino}-8-(3-methylphenyl)-7-[4-(trifluoromethyl)benzyl]-7H-purine-2-carboxylic acid]
- IC50 (Table 6): 4120 nM

SMILES: C[C@@H](Nc1nc(C(=O)O)nc2nc(N3CCCCC3Cc3ccccc3)n(Cc3ccc(C(F)(F)F)cc3)c12)C1CCC1 (stereo partly drawn) [Example 9.3, 8-(2-benzylpiperidin-1-yl)-6-{[(1R)-1-cyclobutylethyl]amino}-7-[4-(trifluoromethyl)benzyl]-7H-purine-2-carboxylic acid]
- IC50 (Table 9): 14.5 nM

SMILES: C[C@@H](Nc1nc(C(=O)O)nc2nc(N3CCCCC3)n(Cc3ccc(C(F)(F)F)cc3)c12)C1CCC1 [Example 9.11, 6-{[(1R)-1-cyclobutylethyl]amino}-8-piperidin-1-yl-7-[4-(trifluoromethyl)benzyl]-7H-purine-2-carboxylic acid]
- IC50 (Table 9): 17.6 nM

SMILES: C[C@@H](Nc1nc(S(C)(=O)=O)nc2nc(N3CCCCC3c3ccccc3)n(C[C@H]3CC[C@H](C)CC3)c12)C1CCC1 (single isomer, unassigned) [Example 14.9]
- inhibition at 1 µM [2]: 46%

SMILES: Cc1cccc(-c2nc(-c3noc(=O)[nH]3)nc3nc(N4CCOCC4)n(C[C@H]4CC[C@H](C)CC4)c23)c1 [Example 16.27, 3-{7-[(trans-4-methylcyclohexyl)methyl]-6-(3-methylphenyl)-8-morpholin-4-yl-7H-purin-2-yl}-1,2,4-oxadiazol-5(4H)-one]
- IC50 [1]: 334 nM

SMILES: C[C@@H](Nc1nc(C(=O)O)nc2nc(N(C)C3CCCCC3)n(Cc3ccc(C(F)(F)F)cc3)c12)C1CCC1 [Example 9.15, 6-{[(1R)-1-cyclobutylethyl]amino}-8-[cyclohexyl(methyl)amino]-7-[4-(trifluoromethyl)benzyl]-7H-purine-2-carboxylic acid]
- IC50 (Table 9): 7.4 nM

SMILES: Cc1noc(C2CCCCN2c2nc3nc(-c4noc(=O)[nH]4)nc(N[C@H](C)C4CCC4)c3n2Cc2ccc(C(F)(F)F)cc2)n1 (stereo partly drawn) [Example 9.107, 3-(6-{[(1R)-1-cyclobutylethyl]amino}-8-[2-(3-methyl-1,2,4-oxadiazol-5-yl)piperidin-1-yl]-7-[4-(trifluoromethyl)benzyl]-7H-purin-2-yl)-1,2,4-oxadiazol-5(4H)-one]
- IC50 (Table 9): 5.18 nM

SMILES: Cc1cccc(-c2nc3nc(C(=O)O)nc(N4CCCC4C(C)(C)C)c3n2Cc2ccc(C(F)(F)F)cc2)c1 (stereo not shown) [Example 6.87, 6-(2-tert-butylpyrrolidin-1-yl)-8-(3-methylphenyl)-7-[4-(trifluoromethyl)benzyl]-7H-purine-2-carboxylic acid]
- inhibition at 1 µM (read-out: inh. at 1000 nM (FRET)): 43%

SMILES: CC(C)c1ccnc(-c2nc3nc(CN)nc(N[C@H](C)C4CCC4)c3n2C[C@H]2CC[C@H](C)CC2)c1 [Example 12.4, 2-(aminomethyl)-N-[(1R)-1-cyclobutylethyl]-7-[(trans-4-methylcyclohexyl)methyl]-8-[4-(propan-2-yl)pyridin-2-yl]-7H-purine-6-amine]
- inhibition at 1 µM [2]: 39%

SMILES: CC(Nc1nc2nc(-c3noc(=O)[nH]3)nc(N[C@H](C)C3CCC3)c2n1Cc1ccc(C(F)(F)F)cc1)c1ccccn1 (stereo partly drawn) [Example 9.75, 3-(6-{[(1R)-1-cyclobutylethyl]amino}-8-[(1-pyridin-2-ylethyl)amino]-7-[4-(trifluoromethyl)benzyl]-7H-purin-2-yl)-1,2,4-oxadiazol-5(4H)-one]
- IC50 (Table 9): 8.12 nM

SMILES: C[C@@H](Nc1nc(C(=O)O)nc2nc(N3CCCC3c3ccccc3)n(Cc3ccc(C(F)(F)F)cc3)c12)C1CCC1 (stereo partly drawn) [Example 9.52, 6-{[(1R)-1-cyclobutylethyl]amino}-8-(2-phenylpyrrolidin-1-yl)-7-[4-(trifluoromethyl)benzyl]-7H-purine-2-carboxylic acid]
- IC50 (Table 9): 31.9 nM

SMILES: C[C@@H](Nc1nc(-c2noc(=O)[nH]2)nc2nc(C(C)(F)c3ccccc3F)n(C[C@H]3CC[C@H](C)CC3)c12)C1CCC1 (single isomer, unassigned) [Example 22.62]
- IC50 (Table 22): 0.563 nM

SMILES: CCCCN(CCC)c1nc(C(=O)O)nc2nc(-c3cccc(C)c3)n(Cc3ccc(C(F)(F)F)cc3)c12 [Example 6.68, 6-[butyl(propyl)amino]-8-(3-methylphenyl)-7-[4-(trifluoromethyl)benzyl]-7H-purine-2-carboxylic acid]
- IC50 (Table 6): 681 nM

SMILES: C[C@@H](Nc1nc(CO)nc2nc(N3CCOC[C@H]3c3ccccc3)n(C[C@H]3CC[C@H](C)CC3)c12)C1CCC1 [Example 12.22, (6-{[(1R)-1-cyclobutylethyl]amino}-7-[(trans-4-methylcyclohexyl)methyl]-8-[(3R)-3-phenylmorpholin-4-yl]-7H-purin-2-yl)methanol]
- IC50 [1]: 78.6 nM

SMILES: C[C@H]1CC[C@H](Cn2c(N3CCOC[C@H]3c3ccccc3F)nc3nc(-c4noc(=O)[nH]4)nc(-c4cncc(Cl)c4)c32)CC1 [Example 16.92, 3-{6-(5-chloropyridin-3-yl)-8-[(3R)-3-(2-fluorophenyl)morpholin-4-yl]-7-[(trans-4-methylcyclohexyl)methyl]-7H-purin-2-yl}-1,2,4-oxadiazol-5(4H)-one]
- IC50 [1]: 0.585 nM

SMILES: CC(C)c1ccnc(-c2nc3nc(C(=O)O)nc(N[C@@H](c4ccccc4)C4CCC4)c3n2Cc2ccc(C(F)(F)F)cc2)c1 [Example 6.57, 6-{[(R)-cyclobutyl(phenyl)methyl]amino}-8-[4-(1-methylethyl)pyridin-2-yl]-7-[4-(trifluoromethyl)benzyl]-7H-purine-2-carboxylic acid]
- IC50 (Table 6): 1060 nM

SMILES: C[C@@H](Nc1nc(-c2noc(=O)[nH]2)nc2nc(N3CCOC[C@H]3c3ccccc3)n(Cc3ccc(Cl)c(F)c3)c12)C1CCC1 [Example 9.4, 3-{7-(4-chloro-3-fluorobenzyl)-6-{[(1R)-1-cyclobutylethyl]amino}-8-[(3R)-3-phenylmorpholin-4-yl]-7H-purin-2-yl}-1,2,4-oxadiazol-5(4H)-one]
- IC50 (Table 9): 0.848 nM

SMILES: CC(c1ccccc1F)c1nc2nc(-c3noc(=O)[nH]3)nc(N[C@H](C)C3CCC3)c2n1C[C@H]1CC[C@H](C)CC1 (single isomer, unassigned) [Example 21.36]
- IC50 (Table 21): 43.1 nM
